Data from patent US9963464B2, “Macrocyclic compounds” (Bayer Pharma Aktiengesellschaft, priority 2014, dated 2018).
Where two headings read alike, the source gives them in different places.

What was measured:
HeLa cells = experiment: Proliferation assay HeLa; assay type: cell-based, human; settings: 4 days, crystal violet, read-out: Inhibition of HeLa cell proliferation IC50
Protocol: (§1) Cultivated tumour cells (HeLa, human cervical tumour cells, ATCC CCL-2; NCI-H460, human non-small cell lung carcinoma cells, ATCC HTB-177; A2780, human ovarian carcinoma cells, ECACC #93112519; DU 145, hormone-independent human prostate carcinoma cells, ATCC HTB-81; HeLa-MaTu-ADR, multidrug-resistant human cervical carcinoma cells, EPO-GmbH Berlin; Caco-2, human colorectal carcinoma cells, ATCC HTB-37; B16F10, mouse melanoma cells, ATCC CRL-6475) were plated at a density of 5,000 cells/well (DU145, HeLa-MaTu-ADR), 3,000 cells/well (NCI-H460, HeLa), 2,500 cells/well (A2780), 1,500 cells/well (Caco-2), or 1,000 cells/well (B16F10) in a 96-well multititer plate in 200 μL of their respective growth medium supplemented 10% fetal calf serum. After 24 hours, the cells of one plate (zero-point plate) were stained with crystal violet (see below), while the medium of the other plates was replaced by fresh culture medium (200 μl), to which the test substances were added in various concentrations (0 μM, as well as in the range of 0.001-10 μM). The cells were incubated for 4 days in the presence of test substances. Cell proliferation was determined by staining the cells with crystal violet: the cells were fixed by adding 20 μl/measuring point of an 11% glutaric aldehyde solution for 15 minutes at room temperature. After three washing cycles of the fixed cells with water, the plates were dried at room temperature. The cells were stained by adding 100 μl/measuring point of a 0.1% crystal violet solution (pH 3.0). After three washing cycles of the stained cells with water, the plates were dried at room temperature. The dye was dissolved by adding 100 μl/measuring point of a 10% acetic acid solution. The extinction was determined by photometry at a wavelength of 595 nm. The change of cell number, in percent, was calculated by normalization of the measured values to the extinction values of the zero-point plate (=0%) and the extinction of the untreated (0 μm) cells (=100%). The IC50 values (inhibitory concentration at 50% of maximal effect) were determined by means of a 4 parameter fit. Non-adherent MOLM-13 human acute myeloid leukemia cells (DSMZ ACC 554) were seeded at a density of 5,000 cells/well in a 96-well multititer plate in 100 μL of growth medium supplemented 10% fetal calf serum. After 24 hours, cell viability of one plate (zero-point plate) was determined with the Cell Titre-Glo Luminescent Cell Viability Assay (Promega), while 50 μL of test compound containing medium was added to the wells of the other plates (final concentrations in the range of 0.001-1 μM and DMSO controls). Cell viability was assessed after 72-hour exposure with the Cell Titre-Glo Luminescent Cell Viability Assay (Promega). IC50 values (inhibitory concentration at 50% of maximal effect) were determined by means of a 4 parameter fit on measurement data which were normalized to vehicle (DMSO) treated cells (=100%) and measurement readings taken immediately before compound exposure (=0%).

B16F10 cells = experiment: Proliferation assay B16F10; assay type: cell-based, mouse; settings: 4 days, crystal violet, read-out: Inhibition of B16F10 cell proliferation IC50
Protocol: as §1

| Compound | IC50 (HeLa cells; Homo sapiens, HeLa, 96 h) [nM] | IC50 (B16F10 cells; Mus musculus, B16-F10, 96 h) [nM] | IC50 (HeLa cells) [nM] | IC50 (B16F10 cells) [nM] |
| --- | --- | --- | --- | --- |
| CS(=N)(=O)Cc1cc2nc(c1)OCCCOc1cc(F)ccc1-c1cc(ncc1F)N2 (single isomer, unassigned; enantiomer 2) [Example 7, 15,19-Difluoro-8-[(S-methylsulfonimidoyl)methyl]-3,4-dihydro-2H,11H-10,6-(azeno)-12,16-(metheno)-1,5,11,13-benzodioxadiazacyclooctadecine; Enantiomer 2] | – | – | 31 | 7 |
| CSCc1cc2cc(c1)OCCCOc1cc(F)ccc1-c1nc(ncc1F)N2 [Example 2, 15,19-Difluoro-8-[(methylsulfanyl)methyl]-3,4-dihydro-2H,11H-12,16-(azeno)-10,6-(metheno)-1,5,11,13-benzodioxadiazacyclooctadecine] | 62 | 167 | – | – |
| CSCc1cc2nc(c1)OCCCOc1cc(F)ccc1-c1cc(ncc1F)N2 [Example 3, 15,19-Difluoro-8-[(methylsulfanyl)methyl]-3,4-dihydro-2H,11H-10,6-(azeno)-12,16-(metheno)-1,5,11,13-benzodioxadiazacyclooctadecine] | 86 | 81 | – | – |
| CS(=O)(=O)Cc1cc2nc(c1)OCCCOc1cc(F)ccc1-c1cc(ncc1F)N2 [Example 8, 15,19-difluoro-8-[(methylsulfonyl)methyl]-3,4-dihydro-2H,11H-10,6-(azeno)-12,16-(metheno)-1,5,11,13-benzodioxadiazacyclooctadecine] | 12 | 9 | – | – |

More lines, in order of falling IC50 (HeLa cells; Homo sapiens, HeLa, 96 h), values ahead:

| IC50 (HeLa cells; Homo sapiens, HeLa, 96 h) [nM] | IC50 (B16F10 cells; Mus musculus, B16-F10, 96 h) [nM] | IC50 (HeLa cells) [nM] | IC50 (B16F10 cells) [nM] | Compound |
| --- | --- | --- | --- | --- |
| 281 | 343 | – | – | CSCc1cc2nc(c1)OCCCCOc1cc(F)ccc1-c1cc(ncc1F)N2 [Example 12, 16,20-Difluoro-9-[(methylsulfanyl)methyl]-2,3,4,5-tetrahydro-12H-11,7-(azeno)-13,17-(metheno)-1,6,12,14-benzodioxadiazacyclononadecine] |
| 31 | 7 | – | – | CS(=N)(=O)Cc1cc2nc(c1)OCCCOc1cc(F)ccc1-c1cc(ncc1F)N2 (single isomer, unassigned; enantiomer 1) [Example 6, 15,19-Difluoro-8-[(S-methylsulfonimidoyl)methyl]-3,4-dihydro-2H,11H-10,6-(azeno)-12,16-(metheno)-1,5,11,13-benzodioxadiazacyclooctadecine; Enantiomer 1] |
